Measured values taken from patent US6906100B2, “Compounds and compositions derived from olives and methods of the use thereof” (Lavipharm S.A., priority 2002, dated 2005).

How the values were obtained:
Jurkat cells = experiment: comet assay (single cell gel electrophoresis): protection of DNA of intact cells exposed to H2O2; type: cell-based; conditions: H2O2 generated by glucose oxidase; for protective activity on cells against oxidative stress (decrease of induced DNA damage): 10 min exposure
Procedure: In the analysis of the antioxidant activity of the extracts I, II, III and IV, as well as, of the pure Compounds 1-9, a method based on measuring the relative protection of DNA of intact cells was performed. This was done with the use of Jurkat cell cultures (a cell line of T-lymph-cells), which were grown in RPMI-1640 enriched with fetal bovine calf serum (10%), penicillin, streptomycin and glutamine. The cells were incubated with the extracts or the purified compounds in the presence of glucose oxidase (60 ng/100 ml) used for the generation of H2O2. After exposure of the cells to H2O2 for 10 min, the degree of DNA damage was evaluated using a specialized method, “single cell gel electrophoresis”, also known as the “comet assay”. The comet assay method is described in the following references: 1. Barbouti A. et al., “DNA Damage And Apoptosis In Hydrogen Peroxide-Exposed Jurkat Cells: Bolus Addition Versus Continuous Generation Of H2O2,” Free Radical Biology and Medicine, 33(5): 691-702, Elsevier Press (2002); as well as Panagiotidis M. et al. (1999) Free Radical Biology and Medicine, 26(5-6): 548-556; Doulias P-T. et al. (2001) Free Radical Biology and Medicine, 30(6): 679-685; Tselepis A. et al. (2001) Free Radical Biology and Medicine, 30(12): 1357-1364; and Barbouti A. et al. (2001) Free Radical Biology and Medicine, 31(4): 490-498 5.
Jurkat cells—a cell line of lymphocytic origin—were exposed to continuously generated hydrogen peroxide, H2O2 and the effects of this treatment on cellular DNA was evaluated according to the references above. […]
The graphic results of the “comet assay” for the waste water extract (IV) and tyrosol (Compound 4), 2-(5-ethylidene-2-oxo-tetrahydropyran-4-yl) acetic acid (from the compound class of lactones or Compound 6) and hydroxytyrosol (Compound 7) are depicted below in FIGS. 3-6, respectively. […] The values are expressed as mean ±SD (n=3).

[1] = antioxidant ability by usual chemical methods (e.g. DPPH)

Row | Structure (SMILES) | dose dependence of protection (Jurkat cells) | protective activity on cells against oxidative stress (decrease of induced DNA damage) (Jurkat cells) | antioxidant ability [1]
1 | CC=C1COC(=O)CC1CC(=O)O (stereo not shown) [2-(5-ethylidene-2-oxo-tetrahydropyran-4-yl) acetic acid] | dose-dependent protection | strong protective activity | does not show any antioxidant ability
2 | OCCc1ccc(O)cc1 [tyrosol, Tyrosol] |  | not | 
